Read-outs that look alike come from different tables or passages of the source. Blank lines part the entries; values can stand above or below the molecule they belong to. Numbered stars: 1 amine (or outer) side, 2 acyl side, 3 side chain; on linkers, the order of the positions; unused ones are H or OH. Square brackets hold non-standard residues; d marks the D form. Side chains are listed from the residue outwards. Ends that are not written are not given here. Peptide text beside a SMILES is read from it. * marks the point of attachment. γGlu = O=C(O)[C@H](CCC(=O)[*:2])N[*:1]; Palmitoyl = CCCCCCCCCCCCCCCC(=O)*; Aib = CC(C)(N)C(=O)O
Legend:
Format in all cases: cell-based
glucagon receptor = target: T1, glucagon receptor (Homo sapiens, UniProt P47871); experiment: cAMP induction, firefly luciferase reporter assay in HEK293 cells co-transfected with the glucagon receptor; conditions: HEK293 cells, cAMP-responsive luciferase reporter, 5 hours incubation
T1 construct: expressed in transfected cells; host or cells: HEK293
Experimental: (§1) The ability of each peptide to induce cAMP was measured in a firefly luciferase-based reporter assay. […] At the end of the incubation, 100 μL of LucLite luminescence substrate reagent (Perkin Elmer, Wellesley, Mass.) were added to each well. […] In some instances, the in vitro agonist activity at the GIP receptor was also tested.

GLP-1 receptor = target: T2, GLP-1 receptor (Homo sapiens, UniProt P43220); experiment: cAMP induction, firefly luciferase reporter assay in HEK293 cells co-transfected with the GLP-1 receptor; conditions: HEK293 cells, cAMP-responsive luciferase reporter, 5 hours incubation
T2 construct: expressed in transfected cells; host or cells: HEK293
Experimental: as §1

GIP receptor = target: T3, GIP receptor (Homo sapiens, UniProt P48546); experiment: in vitro agonist activity at the GIP receptor (cAMP luciferase reporter, HEK293 cells); conditions: in vitro agonist activity; for EC50: read-out: EC50 (nM) at GIP receptor
T3 construct: expressed in transfected cells; host or cells: HEK293
T3 sequence (P48546 22-466): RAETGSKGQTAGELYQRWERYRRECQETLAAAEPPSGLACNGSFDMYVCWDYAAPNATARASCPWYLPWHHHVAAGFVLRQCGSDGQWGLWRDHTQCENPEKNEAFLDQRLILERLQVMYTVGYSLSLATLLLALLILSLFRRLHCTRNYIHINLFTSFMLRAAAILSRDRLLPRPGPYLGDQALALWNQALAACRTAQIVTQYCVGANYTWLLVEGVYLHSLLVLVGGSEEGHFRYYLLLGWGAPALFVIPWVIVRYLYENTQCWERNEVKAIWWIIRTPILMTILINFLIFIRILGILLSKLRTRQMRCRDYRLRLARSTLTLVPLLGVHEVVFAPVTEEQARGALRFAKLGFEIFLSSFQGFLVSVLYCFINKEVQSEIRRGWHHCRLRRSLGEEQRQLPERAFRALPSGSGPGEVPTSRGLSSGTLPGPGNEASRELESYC
Experimental: as §1, with “It is understood that a lower EC50 indicates higher activity or potency at the receptor. […] The” for “The”

[1] = read-out: EC50 (nM) at glucagon receptor
[2] = read-out: EC50 (nM) at GLP-1 receptor

T1 sequence (P47871 26-477, species assumed): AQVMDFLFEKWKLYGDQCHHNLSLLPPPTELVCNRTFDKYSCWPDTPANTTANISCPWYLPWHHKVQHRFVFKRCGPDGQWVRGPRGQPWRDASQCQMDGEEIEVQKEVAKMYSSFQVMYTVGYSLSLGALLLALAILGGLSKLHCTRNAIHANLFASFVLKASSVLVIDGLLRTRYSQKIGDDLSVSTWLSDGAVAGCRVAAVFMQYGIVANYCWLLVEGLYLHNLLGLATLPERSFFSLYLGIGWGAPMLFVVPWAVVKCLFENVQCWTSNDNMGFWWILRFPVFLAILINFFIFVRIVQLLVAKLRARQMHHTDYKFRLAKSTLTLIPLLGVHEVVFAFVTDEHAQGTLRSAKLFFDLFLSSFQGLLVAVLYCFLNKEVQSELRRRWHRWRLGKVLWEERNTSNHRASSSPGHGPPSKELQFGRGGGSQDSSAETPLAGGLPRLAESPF
T2 sequence (P43220 24-463): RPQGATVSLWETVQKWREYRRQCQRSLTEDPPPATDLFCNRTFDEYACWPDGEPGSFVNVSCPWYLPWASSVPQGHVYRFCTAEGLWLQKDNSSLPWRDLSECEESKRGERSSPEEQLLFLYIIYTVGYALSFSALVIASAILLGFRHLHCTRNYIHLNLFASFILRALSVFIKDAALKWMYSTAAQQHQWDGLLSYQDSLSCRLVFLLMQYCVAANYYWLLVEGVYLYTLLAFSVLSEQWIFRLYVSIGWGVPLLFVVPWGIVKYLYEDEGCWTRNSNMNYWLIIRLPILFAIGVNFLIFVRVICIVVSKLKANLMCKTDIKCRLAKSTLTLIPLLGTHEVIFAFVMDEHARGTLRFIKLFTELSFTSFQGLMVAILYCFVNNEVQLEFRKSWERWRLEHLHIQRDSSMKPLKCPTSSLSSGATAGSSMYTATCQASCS

EC50 (glucagon receptor): 0.005 nM
EC50 (GLP-1 receptor): 0.009 nM
EC50 (GIP receptor): 4.5 nM
Molecule: CCCCCCCCCCCCCCCC(=O)N[C@@H](CCC(=O)NCCCC[C@H](NC(=O)[C@H](CC(=O)O)NC(=O)[C@H](CO)NC(=O)[C@@H](NC(=O)[C@H](Cc1ccccc1)NC(=O)[C@@H](NC(=O)CNC(=O)[C@H](CCC(N)=O)NC(=O)[C@@H](CO)NC(=O)[C@H](Cc1c[nH]cn1)NC(C)=O)[C@@H](C)O)[C@@H](C)O)C(=O)N[C@@H](CO)C(=O)N[C@@H](CCCCN)C(=O)N[C@@H](Cc1ccc(O)cc1)C(=O)N[C@@H](CC(C)C)C(=O)N[C@@H](CC(=O)O)C(=O)N[C@@H](CCC(=O)O)C(=O)N[C@@H](CCCNC(=N)N)C(=O)N[C@@H](C)C(=O)N[C@@H](C)C(=O)N[C@@H](CCC(N)=O)C(=O)N[C@@H](CC(=O)O)C(=O)N[C@@H](Cc1ccccc1)C(=O)N[C@H](C(=O)N[C@@H](CCC(N)=O)C(=O)N[C@@H](Cc1c[nH]c2ccccc12)C(=O)N[C@@H](CC(C)C)C(=O)N[C@@H](CC(C)C)C(=O)N[C@@H](CC(=O)O)C(=O)N[C@H](C(N)=O)[C@@H](C)O)C(C)C)C(=O)O [compound 21]

EC50 (glucagon receptor): 0.015 nM
EC50 (GLP-1 receptor): 0.003 nM
EC50 (GIP receptor): 2.84 nM
Molecule: CCCCCCCCCCCCCCCC(=O)N[C@@H](CCC(=O)NCCCC[C@H](NC(=O)[C@H](CC(=O)O)NC(=O)[C@H](CO)NC(=O)[C@@H](NC(=O)[C@H](Cc1ccccc1)NC(=O)[C@@H](NC(=O)CNC(=O)[C@H](CCC(N)=O)NC(=O)[C@@H](CO)NC(=O)[C@@H](N)Cc1c[nH]cn1)[C@@H](C)O)[C@@H](C)O)C(=O)N[C@@H](CO)C(=O)N[C@@H](CCCCN)C(=O)N[C@@H](Cc1ccc(O)cc1)C(=O)N[C@@H](CC(C)C)C(=O)N[C@@H](CC(=O)O)C(=O)N[C@@H](CCC(=O)O)C(=O)N[C@@H](CCCNC(=N)N)C(=O)N[C@@H](C)C(=O)N[C@@H](C)C(=O)N[C@@H](CCC(N)=O)C(=O)N[C@@H](CC(=O)O)C(=O)N[C@@H](Cc1ccccc1)C(=O)N[C@H](C(=O)N[C@@H](CCC(N)=O)C(=O)N[C@@H](Cc1c[nH]c2ccccc12)C(=O)N[C@@H](CC(C)C)C(=O)N[C@@H](CC(C)C)C(=O)N[C@@H](CC(=O)O)C(=O)NCC(=O)N[C@@H](CCCNC(=N)N)C(=O)N[C@@H](CCCCN)C(N)=O)C(C)C)C(=O)O [compound 28]

EC50 (glucagon receptor): 0.035 nM
EC50 (GLP-1 receptor): 0.003 nM
EC50 (GIP receptor): 2.36 nM
Molecule: CCCCCCCCCCCCCCCC(=O)N[C@@H](CCC(=O)N[C@@H](CCC(=O)NCCCC[C@H](NC(=O)[C@H](CC(=O)O)NC(=O)[C@H](CO)NC(=O)[C@@H](NC(=O)[C@H](Cc1ccccc1)NC(=O)[C@@H](NC(=O)CNC(=O)[C@H](CCC(N)=O)NC(=O)C(C)(C)NC(=O)[C@@H](N)Cc1c[nH]cn1)[C@@H](C)O)[C@@H](C)O)C(=O)N[C@@H](CO)C(=O)N[C@@H](CCCCN)C(=O)N[C@@H](Cc1ccc(O)cc1)C(=O)N[C@@H](CC(C)C)C(=O)N[C@@H](CC(=O)O)C(=O)NC(C)(C)C(=O)N[C@@H](CCCNC(=N)N)C(=O)N[C@@H](C)C(=O)N[C@@H](C)C(=O)N[C@@H](CCC(N)=O)C(=O)N[C@@H](CC(=O)O)C(=O)N[C@@H](Cc1ccccc1)C(=O)N[C@H](C(=O)N[C@@H](CCC(N)=O)C(=O)N[C@@H](Cc1c[nH]c2ccccc12)C(=O)N[C@@H](CC(C)C)C(=O)N[C@@H](CCCCN)C(=O)N[C@@H](CC(=O)O)C(=O)NCC(=O)N[C@@H](CCCNC(=N)N)C(=O)N1CCC[C@H]1C(N)=O)C(C)C)C(=O)O)C(=O)O [compound 25] (H-H[Aib]QGTFTSDK([γGlu-γGlu-Palmitoyl])SKYLD[Aib]RAAQDFVQWLKDGRP-NH2)

Molecule: 46 (H[Aib]QGTFTSDYSKYLD[Aib]KRA[Aib]EFVC(PEG 40 kDa)WLLDGGPSSGAPPPS-NH2) [compound 46]
EC50 (nM) at GIP receptor (GIP receptor): no activity

EC50 (nM) at GIP receptor (GIP receptor): no activity
Molecule: 38 (H[Aib]QGTFTSDYSKYLD[Aib]KRA[Aib]EFVC(PEG 40 kDa)WLLDT-NH2) [compound 38]

Molecule: 51 (H[Aib]QGTFTSDYSKYLDEKRA[Aib]EFVC(PEG 40 kDa (thioether via iodoacetyl))WLL[Aib]GGPSSGAPPPS-NH2) [compound 51]
EC50 (nM) at GIP receptor (GIP receptor): no activity

Molecule: 47 (H[Aib]QGTFTSDYSKYLDEKRA[Aib]EFVC(PEG 40 kDa)WLLDGGPSSGAPPPS-NH2) [compound 47]
EC50 (nM) at GIP receptor (GIP receptor): no activity

EC50 (nM) at GIP receptor (GIP receptor): no activity
Molecule: 45 (H[Aib]QGTFTSDYSKYLDEKRA[Aib]EFVC(PEG 40 kDa)WLLDT-OH) [compound 45]

EC50 (nM) at GIP receptor (GIP receptor): no activity
Molecule: 13 (H[Aib]QGTFTSDYSKYLDEKRA[Aib]EFVC(PEG 40 kDa)WLLDT-NH2) [compound 13]

Molecule: CC[C@H](C)[C@H](NC(=O)[C@H](Cc1ccccc1)NC(=O)[C@H](CC(C)C)NC(=O)[C@H](CCCNC(=N)N)NC(=O)[C@@H](NC(=O)[C@H](C)NC(=O)[C@H](CCC(N)=O)NC(=O)[C@H](CCC(=O)O)NC(=O)[C@H](CC(=O)O)NC(=O)[C@H](CC(C)C)NC(=O)[C@H](Cc1ccc(O)cc1)NC(=O)[C@H](CCCCN)NC(=O)[C@H](CO)NC(=O)[C@H](Cc1ccc(O)cc1)NC(=O)[C@H](CC(=O)O)NC(=O)[C@H](CO)NC(=O)[C@@H](NC(=O)[C@H](Cc1ccccc1)NC(=O)[C@@H](NC(=O)CNC(=O)[C@H](CCC(N)=O)NC(=O)[C@@H](CO)NC(=O)[C@@H](N)Cc1c[nH]cn1)[C@@H](C)O)[C@@H](C)O)C(C)C)C(=O)N[C@@H](CS)C(=O)N[C@@H](Cc1c[nH]c2ccccc12)C(=O)N[C@@H](CC(C)C)C(=O)N[C@@H](CC(C)C)C(=O)N[C@@H](CC(=O)O)C(=O)NCC(=O)NCC(=O)N1CCC[C@H]1C(=O)N[C@@H](CO)C(=O)N[C@@H](CO)C(=O)NCC(=O)N[C@@H](C)C(=O)N1CCC[C@H]1C(=O)N1CCC[C@H]1C(=O)N1CCC[C@H]1C(=O)N[C@@H](CO)C(N)=O [compound 62] (H-H[dS]QGTFTSDYSKYLDEQAVRLFICWLLDGGPSSGAPPPS-NH2; N-terminus assumed)
EC50 (glucagon receptor; [1]): 0.132 nM
EC50 (GLP-1 receptor; [2]): 0.006 nM

EC50 (glucagon receptor; [1]): 0.028 nM
EC50 (GLP-1 receptor; [2]): 0.024 nM
Molecule: CCCCCCCCCCCCCCCC(=O)N[C@@H](CCC(=O)NCCCC[C@H](NC(=O)[C@H](CC(=O)O)NC(=O)[C@H](CO)NC(=O)[C@@H](NC(=O)[C@H](Cc1ccccc1)NC(=O)[C@@H](NC(=O)CNC(=O)[C@H](CCC(N)=O)NC(=O)[C@@H](CO)NC(=O)[C@@H](N)Cc1c[nH]cn1)[C@@H](C)O)[C@@H](C)O)C(=O)N[C@@H](CO)C(=O)N[C@@H](CCCCN)C(=O)N[C@@H](Cc1ccc(O)cc1)C(=O)N[C@@H](CC(C)C)C(=O)N[C@@H](CC(=O)O)C(=O)N[C@@H](CCC(=O)O)C(=O)N[C@@H](CCC(N)=O)C(=O)N[C@@H](C)C(=O)N[C@@H](C)C(=O)N[C@@H](CCCCN)C(=O)N[C@@H](CCC(=O)O)C(=O)N[C@@H](Cc1ccccc1)C(=O)N[C@H](C(=O)N[C@@H](CS)C(=O)N[C@@H](Cc1c[nH]c2ccccc12)C(=O)N[C@@H](CC(C)C)C(=O)N[C@@H](CC(C)C)C(=O)N[C@@H](CC(=O)O)C(=O)N[C@H](C(=O)N[C@@H](CCC(=O)O)C(N)=O)[C@@H](C)O)[C@@H](C)CC)C(=O)O [compound 65]

EC50 (glucagon receptor; [1]): 0.009 nM
EC50 (GLP-1 receptor; [2]): 0.012 nM
Molecule: CCCCCCCCCCCCCCCC(=O)N[C@@H](CCC(=O)NCCCC[C@H](NC(=O)[C@H](CC(=O)O)NC(=O)[C@H](CO)NC(=O)[C@@H](NC(=O)[C@H](Cc1ccccc1)NC(=O)[C@@H](NC(=O)CNC(=O)[C@H](CCC(N)=O)NC(=O)[C@@H](CO)NC(=O)[C@@H](N)Cc1c[nH]cn1)[C@@H](C)O)[C@@H](C)O)C(=O)N[C@@H](CO)C(=O)N[C@@H](CCCCN)C(=O)N[C@@H](Cc1ccc(O)cc1)C(=O)N[C@@H](CC(C)C)C(=O)N[C@@H](CC(=O)O)C(=O)N[C@@H](CCC(=O)O)C(=O)N[C@@H](CCC(N)=O)C(=O)N[C@@H](C)C(=O)N[C@@H](C)C(=O)N[C@@H](CCCCN)C(=O)N[C@@H](CCC(=O)O)C(=O)N[C@@H](Cc1ccccc1)C(=O)N[C@H](C(=O)N[C@@H](CS)C(=O)N[C@@H](Cc1c[nH]c2ccccc12)C(=O)N[C@@H](CC(C)C)C(=O)N[C@@H](CC(C)C)C(=O)N[C@@H](CC(=O)O)C(=O)N[C@H](C(N)=O)[C@@H](C)O)[C@@H](C)CC)C(=O)O [compound 64]

EC50 (nM) at GIP receptor (GIP receptor): no activity
Molecule: 41 (H[Aib]QGTFTSDYSKYLDEKRA[Aib]EFVC(PEG 40 kDa)WLL[Aib]T-NH2) [compound 41]

EC50 (nM) at GIP receptor (GIP receptor): no activity
Molecule: 52 (H[Aib]QGTFTSDYSKYLDEK[Aib]AKEFVC(PEG 40 kDa (thioether via iodoacetyl))WLLDT-NH2) [compound 52]

From US8729017B2 (priority 2011, dated 2014)
